According to patent US5985894A, “N-substituted quinolines” (Hoechst Marion Roussel, priority 1991, dated 1999):
One block for each compound: values may come before it.

Key:
[1] = system: angiotensin II; assay: Test for antagonistic activity of angiotensin II on a demedullated rat; type: in vivo, Male Sprague-Dawley rats; conditions: iv, 5 min, pressure effect of angiotensin II 0.75 micrograms/kg, compound injected (jugular vein) 5 minutes before, read-out: 50% inhibiting dose
Procedure: 3) Test for Antagonistic Activity of Angiotensin II on a Demedullated Rat
Male Sprague-Dawley rats weighing 250 to 350 g were anaesthetized by an intraperitoneal injection of sodium pentobarbital (60 mg/kg). The diastolic arterial pressure was recorded using a heparinated catheter (PE50) introduced into the left carotid of the animal, and connected to a pressure calculator (Gould, Pressure Processor) by a Gould pressure sensor. A catheter was introduced into the right jugular vein of the animal for the injection of the molecules to be studied. The animal was placed under assisted respiration and a bilateral section of the pneumogastric nerves was carried out. The rat was then demedullated. After a sufficient period of stabilization, the study of the antagonism of the compounds vis-a-vis angiotensin II (Ciba Hypertensin) was carried out in the following manner.
1--Three consecutive injections of angiotensin II (0.75 micrograms/kg) spaced out over 15 minutes allowed a reproducible and stable pressure response to be obtained.
2--While keeping a time period of 15 minutes for the administration of angiotensin II, the molecules to be studied were injected 5 minutes before angiotensin II.
The pressure effects of angiotensin II in the presence of the antagonist were expressed as a percentage of the pressure effects of angiotensin II administered on its own. The 50% inhibiting dose of the effect studied was determined. Each animal was considered as its own control and the results are in the following Table

[2] = target: T1, Angiotensin II Receptor (Rattus norvegicus, UniProt P25095); assay: Test on the Angiotensin II Receptor (displacement of 125I angiotensin II, rat liver membranes); type: binding; conditions: pH 7.4, 25° C., 150 minutes
T1 construct: A fresh membrane preparation obtained from the liver of a rat was used; from tissue; host or cells: rat liver, fresh membrane preparation
T1 sequence (P25095 1-359): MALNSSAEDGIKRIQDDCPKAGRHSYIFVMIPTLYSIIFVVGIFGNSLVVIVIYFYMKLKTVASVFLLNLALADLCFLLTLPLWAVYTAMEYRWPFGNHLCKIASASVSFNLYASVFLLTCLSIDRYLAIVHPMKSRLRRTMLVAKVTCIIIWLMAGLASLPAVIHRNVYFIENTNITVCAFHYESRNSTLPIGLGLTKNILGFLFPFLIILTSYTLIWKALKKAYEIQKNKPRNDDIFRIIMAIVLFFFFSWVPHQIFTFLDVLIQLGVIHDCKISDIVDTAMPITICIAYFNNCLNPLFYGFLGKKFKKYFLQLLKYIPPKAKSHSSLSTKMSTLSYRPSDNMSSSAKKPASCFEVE
Procedure: 1) Test on the Angiotensin II Receptor
A fresh membrane preparation obtained from the liver of a rat was used and the tissue was ground up in a polytron in a Tris 50 mM pH 7.4 buffer. After being ground up, the tissue was centrifuged 3 times at 30,000 g for 15 minutes with intermediate taking up of the deposits in the Tris pH 7.4 buffer. The last deposits were suspended in a pH 7.4 incubation buffer (Tris 20 mM, NaCl 135 mM, KCl 10 mM, glucose 5 mM, MgCl2 10 mM, phenyl methyl sulfonyl fluoride 0.3 mM, bacitracine 0.1 mM (0.2% bovine albumin serum). 2 ml aliquoted fractions were divided into hemolysis tubes and ^125 I angiotensin II (25,000 DPM/tube) and the product to be studied were added. The product has first tested at 3×10^-5 M in triplicate. When the test product displaced more than 50% of the radioactivity linked specifically to the receptor, it was tested again according to a range of 7 concentrations to determine the concentration that inhibited the radioactivity linked specifically to the receptor by 50%. In this way, the 50% inhibiting concentration was determined.
The non-specific bond was determined by the addition of the product of Example 94 of the European Patent No. 0,253,310 at 10^-5 M (in triplicate). The deposit was incubated at 25° C. for 150 minutes, put back in a water bath at 0° C. for 5 minutes, filtered under vacuum, rinsed with Tris pH 7.4 buffer and the radioactivity was counted in the presence of scintillating Triton. The results were expressed directly as a 50% inhibiting concentration (IC50), that is to say as a concentration of product studied, expressed in nM, necessary to displace 50% of the specific radioactivity fixed on the receptor studied.

[3] = system: angiotensin II on the isolated portal vein; assay: Antagonistic activity of angiotensin II on the isolated portal vein; type: cell-based, male Wistar rats; conditions: isolated rat portal vein, angiotensin II 3.10^-8 M, compound 15 minutes before; read-out: IC50 (50% inhibition of the response to angiotensin)
Procedure: The portal vein was removed from male Wistar rats weighing about 350 g (IFFA Credo France) after cervical dislocation, and put rapidly into a physiological solution (see below) at ambient temperature. A ring of about 1 mm was mounted in a bath with an isolated element containing 20 ml of the following physiological solution (composition in mM: NaCl 118.3-KCl 4.7-MgSO4 1.2-KH2 PO4 1.2-NaHCO3 25-glucose 11.1-CaCl2 2.5). The medium was maintained at 37° C. and oxygenated with a mixture of O2 95%, CO2 5%. The initial pressure imposed was 1 g and the rings were left at rest for 60 to 90 minutes. To avoid spontaneous contractions, verapamil was added to the incubation bath (1.10^-6 M). At the end of the rest period, angiotensin II (Ciba hypertensis) 3.10^-8 M were added to the incubation bath and left in contact with the preparation for one minute. This operation was repeated every 30 minutes with the tissue being washed 3 or 4 times between two stimulations with angiotensin. The compound to be studied was introduced into the bath 15 minutes before a new stimulation with angiotensin. As increasing concentrations of the molecule were used, an IC50 (concentration that produced a 50% inhibition of the response to angiotensin) was calculated, expressed in nanomoles.

[4] = Passive avoidance test (scopolamine amnesia); type: in vivo, Male mice (CD1 Charles River); conditions: s.c., 24 hours after treatment

SMILES: CCCCc1cn(Cc2ccc(-c3ccccc3C(=O)O)cc2)c2ccccc2c1=O [Example 4, 4'-[(3-butyl-1,4-dihydro-4-oxo-1-quinolinyl)-methyl](1,1'-biphenyl)-2-carboxylic acid]
ED50 [1]: 7.55 mg/kg
IC50 [2]: 180 nM
IC50 [3]: 96.5 nM

SMILES: CCCCc1cn(Cc2ccc(-c3ccccc3C(=O)O)cc2)c2c(c1=O)CCCC2 [Example 22, 4'-[(3-butyl-1,4,5,6,7,8-hexahydro-4-oxo-1-quinolinyl)-methyl](1,1'-biphenyl)-2-carboxylic acid]
ED50 [1]: 1 mg/kg
IC50 [2]: 90 nM
PERCENTAGE OF INCREASE IN THE LATENCY TIME RELATIVE TO THE CONTROLS ([4]; dose 10 μg/kg): 8%
PERCENTAGE OF INCREASE IN THE LATENCY TIME RELATIVE TO THE CONTROLS ([4]; dose 25 μg/kg): 26%
PERCENTAGE OF INCREASE IN THE LATENCY TIME RELATIVE TO THE CONTROLS ([4]; dose 100 μg/kg): 66%
PERCENTAGE OF INCREASE IN THE LATENCY TIME RELATIVE TO THE CONTROLS ([4]; dose 250 μg/kg): 128%
PERCENTAGE OF INCREASE IN THE LATENCY TIME RELATIVE TO THE CONTROLS ([4]; dose 1000 μg/kg): 127%

SMILES: CCCCc1cn(Cc2ccc(-c3ccccc3C(=O)O)cc2)c2c(C(=O)O)cccc2c1=O [Example 30]
ED50 [1]: 0.21 mg/kg
IC50 [2]: 54 nM
PERCENTAGE OF INCREASE IN THE LATENCY TIME RELATIVE TO THE CONTROLS ([4]; dose 1 μg/kg): 23%
PERCENTAGE OF INCREASE IN THE LATENCY TIME RELATIVE TO THE CONTROLS ([4]; dose 10 μg/kg): 37%
PERCENTAGE OF INCREASE IN THE LATENCY TIME RELATIVE TO THE CONTROLS ([4]; dose 25 μg/kg): 65%
PERCENTAGE OF INCREASE IN THE LATENCY TIME RELATIVE TO THE CONTROLS ([4]; dose 100 μg/kg): 91%
PERCENTAGE OF INCREASE IN THE LATENCY TIME RELATIVE TO THE CONTROLS ([4]; dose 250 μg/kg): 144%
PERCENTAGE OF INCREASE IN THE LATENCY TIME RELATIVE TO THE CONTROLS ([4]; dose 1000 μg/kg): 126%

SMILES: CCCCc1cn(Cc2ccc(-c3ccccc3C(=O)O)cc2)c2cc(CCC(=O)O)ccc2c1=O [Example 38]
PERCENTAGE OF INCREASE IN THE LATENCY TIME RELATIVE TO THE CONTROLS ([4]; dose 0.1 μg/kg): 1%
PERCENTAGE OF INCREASE IN THE LATENCY TIME RELATIVE TO THE CONTROLS ([4]; dose 1 μg/kg): 57%
PERCENTAGE OF INCREASE IN THE LATENCY TIME RELATIVE TO THE CONTROLS ([4]; dose 10 μg/kg): 118%
PERCENTAGE OF INCREASE IN THE LATENCY TIME RELATIVE TO THE CONTROLS ([4]; dose 25 μg/kg): 132%
PERCENTAGE OF INCREASE IN THE LATENCY TIME RELATIVE TO THE CONTROLS ([4]; dose 100 μg/kg): 131%
PERCENTAGE OF INCREASE IN THE LATENCY TIME RELATIVE TO THE CONTROLS ([4]; dose 250 μg/kg): 101%
PERCENTAGE OF INCREASE IN THE LATENCY TIME RELATIVE TO THE CONTROLS ([4]; dose 1000 μg/kg): 158%

SMILES: CCCCc1cn(Cc2ccc(-c3ccccc3C(=O)O)cc2)c2cc(CC(=O)O)ccc2c1=O [Example 50]
ED50 [1]: 0.61 mg/kg
PERCENTAGE OF INCREASE IN THE LATENCY TIME RELATIVE TO THE CONTROLS ([4]; dose 0.1 μg/kg): 20%
PERCENTAGE OF INCREASE IN THE LATENCY TIME RELATIVE TO THE CONTROLS ([4]; dose 0.25 μg/kg): 31%
PERCENTAGE OF INCREASE IN THE LATENCY TIME RELATIVE TO THE CONTROLS ([4]; dose 1 μg/kg): 84%
PERCENTAGE OF INCREASE IN THE LATENCY TIME RELATIVE TO THE CONTROLS ([4]; dose 2.5 μg/kg): 93%
PERCENTAGE OF INCREASE IN THE LATENCY TIME RELATIVE TO THE CONTROLS ([4]; dose 10 μg/kg): 190%
PERCENTAGE OF INCREASE IN THE LATENCY TIME RELATIVE TO THE CONTROLS ([4]; dose 25 μg/kg): 225%
PERCENTAGE OF INCREASE IN THE LATENCY TIME RELATIVE TO THE CONTROLS ([4]; dose 100 μg/kg): 149%

SMILES: CCCCc1cn(Cc2ccccc2CC(=O)O)c2ccccc2c1=O [Example 56]
PERCENTAGE OF INCREASE IN THE LATENCY TIME RELATIVE TO THE CONTROLS ([4]; dose 10 μg/kg): 24%
PERCENTAGE OF INCREASE IN THE LATENCY TIME RELATIVE TO THE CONTROLS ([4]; dose 25 μg/kg): 49%
PERCENTAGE OF INCREASE IN THE LATENCY TIME RELATIVE TO THE CONTROLS ([4]; dose 100 μg/kg): 98%
PERCENTAGE OF INCREASE IN THE LATENCY TIME RELATIVE TO THE CONTROLS ([4]; dose 250 μg/kg): 105%
PERCENTAGE OF INCREASE IN THE LATENCY TIME RELATIVE TO THE CONTROLS ([4]; dose 1000 μg/kg): 122%

SMILES: CCCCc1cn(Cc2ccc(-c3ccccc3C(=O)O)cc2)c2ccc(C)cc2c1=O [Example 58]
PERCENTAGE OF INCREASE IN THE LATENCY TIME RELATIVE TO THE CONTROLS ([4]; dose 0.1 μg/kg): 3%
PERCENTAGE OF INCREASE IN THE LATENCY TIME RELATIVE TO THE CONTROLS ([4]; dose 1 μg/kg): 29%
PERCENTAGE OF INCREASE IN THE LATENCY TIME RELATIVE TO THE CONTROLS ([4]; dose 10 μg/kg): 112%
PERCENTAGE OF INCREASE IN THE LATENCY TIME RELATIVE TO THE CONTROLS ([4]; dose 25 μg/kg): 110%
PERCENTAGE OF INCREASE IN THE LATENCY TIME RELATIVE TO THE CONTROLS ([4]; dose 100 μg/kg): 129%

Continued, in another order:

IC50 [2]: 400 nM
IC50 [3]: 66 nM
SMILES: CCCCc1cn(Cc2ccc(-c3ccccc3C(=O)O)cc2)c2ccccc2c1=S [Example 6]
ED50 [1]: 6.65 mg/kg

IC50 [2]: 92 nM
IC50 [3]: 31 nM
SMILES: CCCCc1cn(Cc2ccc(-c3ccccc3C(=O)O)cc2)c2cc(C(=O)O)ccc2c1=O [Example 10, 3-butyl-1-[[2'-carboxy-(1,1'-biphenyl)-4-yl]-methyl]-1,4-dihydro-4-oxo-7-quinoline carboxylic acid]
ED50 [1]: 1.27 mg/kg

IC50 [3]: 49 nM
SMILES: CCCCc1cn(Cc2ccc(-c3ccccc3C(=O)O)cc2)c2cc(CO)ccc2c1=O [Example 12]
ED50 [1]: 3.76 mg/kg

IC50 [2]: 79 nM
IC50 [3]: 31.7 nM
SMILES: CCCCc1cn(Cc2ccc(-c3ccccc3C(=O)O)cc2)c2cc(C(=O)N3CCCC3)ccc2c1=O [Example 16]
ED50 [1]: 1.2 mg/kg

IC50 [2]: 74 nM
SMILES: CCCCc1cn(Cc2ccc(-c3ccccc3C(=O)O)cc2)c2c(Br)cccc2c1=O [Example 18, 4'-[(3-butyl-1,4-dihydro-8-bromo-4-oxo-1-quinolinyl)-methyl](1,1'-biphenyl)2-carboxylic acid]
ED50 [1]: 3.9 mg/kg

IC50 [2]: 8.7 nM
SMILES: CCCCc1cn(Cc2ccc(-c3ccccc3-c3nn[nH]n3)cc2)c2cc(C(=O)N3CCCC3)ccc2c1=O [Example 52]
ED50 [1]: 0.23 mg/kg
